# Assays:
# [1] = cited from earlier work
# [2] = test system: IFN-γ receptor KO and HSF1 knockout MC38 cells; assay: Flow cytometry of MHC-I on IFN-γ receptor KO and Hsf1 KO MC38 cells; assay type: cell-based, mouse
# Protocol: Cell Culture MC38 cells were kindly provided by A. Sharpe from Dana Farber Cancer Institute. Cells were maintained in DMEM supplemented with 10% FBS and penicillin/streptomycin. Cells were confirmed negative for mycoplasma contamination by PCR-based assay. MC38 cells were seeded in 12 well plates at a density of 125,000 cells per well and allowed to attach for 24 hours, and then treated with the indicated concentrations of HSP90i (NVP-HSP990) or IFN-γ. For Ifngra knockout, control or sgRNA targeting Ifngra ([…]) were cloned into pLenti-CRISPRv2 (Addgene #52561). Lentivirus was produced with HEK293T cells and MC38 cells were transduced with standard protocols. Transduced cells were selected with 2 μg/mL puromycin for 72 hours. Selected cells were then treated with DMSO, 60 nM Hsp90i, 10 ng/mL Ifng, or the combination and analyzed by flow cytometry.
# For analysis of MHC Class I surface expression, cells were seeded into 12 well plates (125,000/well). 24-hours later, cells were treated with the indicated concentrations of HSP90i (NVP-HSP990) or DMSO vehicle. 72-hours after treatment, cells were dissociated with Accumax (Innovative Cell Technologies) and each treatment condition was distributed into 2 wells of a 96 well plate. […] Cytometric data were plotted and analyzed with FloJo.
# [3] = test system: Ctrl or B2m KO MC38 tumors; assay: Ctrl or B2m KO MC38 tumors in mice; assay type: in vivo; details: 0.5 mg/kg/day
# From the text: FIGS. 6A-B are graphs showing anti-tumor activity of low-dose HSP90i is dependent on functional MHC Class I expression. Ctrl or B2m KO cells were generated by CRISPR-Cas9 mediated gene editing, and B2m KO cells were confirmed to no longer express MHC-I on the cell surface. FIG. 6A is a line graph showing relative number of viable Ctrl and B2m KO cells measured by standard dye reduction assay following 2-day exposure to increasing concentrations of HSP90i; FIG. 6B is a line graph showing size in mm^3 of Ctrl or B2m KO MC38 tumors in mice treated with vehicle (Veh, solid lines) or 0.5 mg/kg/day HSP90i (dotted lines) over 25 days post implantation.
# For CRISPR/Cas9-mediated disruption of B2m, pSpCas9-P2A-GFP plasmid (Addgene #48138) was modified with a control sgRNA sequence ([…]) or an sgRNA targeting B2m ([…]). Log phase MC38 cells were transfected with Ctrl or B2m plasmids using Lipofectamine 2000 (Invitrogen) according to manufacturer's instructions. 24 hours later, single GFP positive cells were sorted into 96-well plates to isolate individual MC38 clones with the desired modification. After 2 weeks, isolated clones were tested by western blot to confirm loss of B2m expression. Ctrl and B2m clones were then passaged through syngeneic mice (C57/B16) to increase the uniformity of tumor establishment and progression in subsequent experiments.
# [4] = Plasma HSP90i concentration in mice by LC/MS; assay type: in vivo, C57Bl/6 and NOD-SCID mice; details: 0.5 mg/kg/day in drinking water, both strains (C57Bl/6 and NOD-SCID)
# Protocol: For oral dosing with HSP90i, the average water consumption of the mice was calculated by measuring water bottle weight before and after 72 hours of housing to determine the average consumption per mouse, per day. Across all experiments, C57Cl/6 mice consumed approximately 4 mL every day. Using these water consumption values, and mouse weight, a 4 mg/mL stock solution of NVP-HSP990 (in 100% PEG400) was diluted directly into the drinking water to achieve a target dose of 0.5 mg/kg/day. HSP990 treatment was begun 72 hours prior to implantation of MC38 cells to allow the drug to reach steady state level prior to tumor challenge.
# Serum NVP-HSP990 levels were analyzed by sacrificing mice, performing a cardiac puncture, and isolating approximately 500 μL of whole blood. Blood was transferred to EDTA-coated microtubes and placed on ice. After all samples were collected, they were spun at 10,000×g for 15 min. The supernatant plasma was collected and stored at −80° C. until further processing. 2×10 μL aliquots of serum from each animal was extracted with 40 μL of ice cold acetonitrile and shaken for 30 min at 4° C. The acetonitrile solvent was spiked with 10 nM imatinib as an internal standard for mass spectrometry. Following extraction, samples were spun at 20,000×g for 15 min and the de-proteinated supernatant transferred to a clean Eppendorf tube prior to mass spectrometry analysis. […]
# KP lung tumors = assay: Lung tumor burden in KP mouse model of NSCLC; assay type: in vivo; details: KP mice, 0.5 mg/kg/day in drinking water for 4 weeks
# From the text: A genetically engineered mouse model of non-small cell lung cancer (NSCLC) was used. Mice harboring a Cre-recombinase inducible oncogenic Kras, and a floxed p53 allele (KP) develop tumors following intratracheal administration of Cre recombinase. In addition, a hypermutant mouse model of NSCLC (KPM) was used in which mice have a floxed allele of the MutS homolog 2 (Msh2) gene, a critical component of DNA mismatch repair, in addition to the genetic modifications of the KP mouse model. These models enable the interrogation of Hsp90i strategies in a physiologically relevant NSCLC model with and without hypermutation.
# KP and KPM mice were infected intratracheally with Adenovirus expressing Cre recombinase from an SPC promoter at a titer of 2×10^8 plaque forming units per mouse to initiate tumor formation. 8 weeks following tumor initiation, the cohort was randomized and vehicle (control) or Hsp90i (NVP-HSP990) was administered in the drinking water at a dose of 0.5 mg/kg/day for 4 weeks prior to analysis at 12 weeks post tumor induction.
# Tumor burden was analyzed histologically on tumor sections stained with hemotoxylin and eosin (H&E) using standard protocols at the Koch Institute Histology Facility. Tumor burden was calculated by dividing the total area of tumor tissue over the total area of normal lung tissue present in each sample.
# HSP90β = HSP90β (Homo sapiens, UniProt P08238); details: cited from earlier work
# Sequence of HSP90β (P08238 whole entry): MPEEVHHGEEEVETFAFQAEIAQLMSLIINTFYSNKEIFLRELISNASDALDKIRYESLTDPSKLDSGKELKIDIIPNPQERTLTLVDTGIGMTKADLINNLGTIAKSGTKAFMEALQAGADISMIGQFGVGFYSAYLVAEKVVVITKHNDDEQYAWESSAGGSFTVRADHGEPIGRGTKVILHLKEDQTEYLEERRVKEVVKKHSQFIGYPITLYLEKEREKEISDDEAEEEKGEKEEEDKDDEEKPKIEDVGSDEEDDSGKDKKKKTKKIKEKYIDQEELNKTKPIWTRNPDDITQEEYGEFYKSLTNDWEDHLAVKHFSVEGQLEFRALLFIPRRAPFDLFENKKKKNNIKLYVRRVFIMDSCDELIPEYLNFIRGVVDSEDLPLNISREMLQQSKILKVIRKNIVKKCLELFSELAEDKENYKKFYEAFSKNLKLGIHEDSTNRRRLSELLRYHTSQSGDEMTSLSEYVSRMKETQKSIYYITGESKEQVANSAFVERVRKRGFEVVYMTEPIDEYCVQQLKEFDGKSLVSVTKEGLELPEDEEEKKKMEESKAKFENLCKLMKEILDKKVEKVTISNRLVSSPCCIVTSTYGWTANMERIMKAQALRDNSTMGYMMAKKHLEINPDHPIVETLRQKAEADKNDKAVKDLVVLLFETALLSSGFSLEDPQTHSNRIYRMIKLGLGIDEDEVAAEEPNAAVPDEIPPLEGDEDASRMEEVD
compound,measurement,setting,value
COc1cccc(-c2cc(F)ccc2[C@H]2Cc3nc(N)nc(C)c3C(=O)N2)n1 [NVP-HSP990],drug half-lives,[1]; both doses (50 mg and 2.5 mg),20 to 25 h
same,steady state drug concentration in plasma,[1]; oral dosing of 2.5 mg,20 to 40 nM
same,peak plasma concentration,"[1]; single oral dose of 2.5 mg, human",34 nM
same,peak plasma drug concentration,"[1]; single orally administered dose of 50 mg, human",1.31 µM
same,MHC-I in IFN-γ receptor KO MC38 cells,[2]; 60 nM,induced MHC-I in IFN-γ receptor KO cells
same,MHC-I induction in HSF1 knockout MC38 cells,[2]; two knockout cell lines,HSF1 was not required for the induction of MHC-I
same,"growth kinetics of B2m KO MC38 tumors, treated versus vehicle",[3],nearly identical growth kinetics
same,growth of Ctrl MC38 tumors,[3],reduced the growth of Ctrl tumors
same,plasma concentration of HSP90i,[4],~20 nM
same,lung tumor burden versus vehicle,KP lung tumors,no significant difference
same,IC50,HSP90β,0.8 nM
